Patent publication US12221444B2, “5,6,7,7a-tetrahydrocyclopenta[f]pyrido[1,2-h][1,7]naphthyridin-11(4bH)-one compounds and methods of use” (GLAXOSMITHKLINE INTELLECTUAL, priority 2017, dated 2025)

Key:
HBs antigens (HBsAg) = assay: HepAD38 cells HBsAg ELISA; assay type: cell-based, Hepatitis B virus; settings: read-out: HepAD38, HBsAg (EC50), 7 days total treatment, HBsAg ELISA of cell media
Description: (§1) Example 36 HepAD38 Cells—HBsAg ELISA and Cytotoxicity Assays
(§2) HepAD38 cells are maintained in collagen-coated flasks in cell culture medium (DMEM/F12 containing 10% fetal bovine serum (FBS), GlutaMax-1, penicillin/streptomycin, non-essential amino acids, Na pyruvate, 250 μg/mL geneticin, and 1 μg/mL doxycycline). Compound solutions are prepared in DMSO and compound are serially diluted for final concentrations of 4000, 1000, 250, 62.5, 15.6, 3.91, 0.977, 0.244, 0.061, and 0.015 ηM. The cells are then trypsinized and the cells are plate at 10,000 cells per well. Incubate plates are incubated at 37° C., 5% CO2 for 4 days. Media is replaced with new media with compound treatment. The plates are then incubated at 37° C., 5% CO2 for an additional 3 days for a total treatment time of 7 days. For antiviral response, HBsAg was measured using the HBsAg ELISA kit (International Immuno-diagnostics) with instructions provided. 100 uL of cell media samples was used for ELISA. The absorbance was read on the Spectramax® 384 plate reader (Molecular Devices) at 450 nm. For cell toxicity, the cells were used for CellTiter-Glo® Luminescent Cell Viability Assay reagent (Promega). The luminescence was read on Envision Multilabel Reader (Perkin Elmer). The data was analyzed compared to the DMSO control. % inhibition=(1−(unknown/high control))*100
(§3) The average % inhibition values from duplicate assay plates are then plotted in GraphPad Prism to determine one IC value: Four-parameter logistic curve with equation Y=Bottom+(Top-Bottom)/(1+10^((Log IC50−X)*HillSlope)) pIC50=[…]

[1] = HepAD38 cells cytotoxicity assay (CellTiter-Glo Luminescent Cell Viability Assay); assay type: cell-based; settings: human, 7 days total treatment, read-out: Cell tox (EC50, ηM)
Description: as §1, §2, §3

Row | SMILES | EC50 (HBs antigens (HBsAg)) | EC50 at 7 days [1]
1 | COCCCOc1cc2c(nc1C1CC1)-c1cc(=O)c(C(=O)O)cn1[C@@H]1C(C)(C)CCC21O (single isomer, unassigned) [Example 5] | 0.001 to 0.01 µM | > 4 µM
2 | COCCCOc1cc2c(nc1O)-c1cc(=O)c(C(=O)O)cn1[C@H]1[C@@H]2CCC1(C)C [Example 8, (4bR,7aS)-2-Hydroxy-3-(3-methoxypropoxy)-7,7-dimethyl-11-oxo-4b,5,6,7,7a,11-hexahydrocyclopenta[f]pyrido[1,2-h][1,7]naphthyridine-10-carboxylic acid] | > 0.1 µM | > 4 µM
3 | COc1nc2c(cc1OCC1CC1)C[C@@H](C(C)(C)C)n1cc(C(=O)O)c(=O)cc1-2 [Example 17, (S)-6-(tert-Butyl)-3-(cyclopropylmethoxy)-2-methoxy-10-oxo-6,10-dihydro-5H-pyrido[1,2-h][1,7]naphthyridine-9-carboxylic acid] | < 0.001 µM | > 4 µM
4 | COCCCOc1cc2c(nc1C)-c1cc(=O)c(C(=O)O)cn1[C@H](C(C)(C)C)C2 [Example 13, (S)-6-(tert-Butyl)-3-(3-methoxypropoxy)-2-methyl-10-oxo-6,10-dihydro-5H-pyrido[1,2-h][1,7]naphthyridine-9-carboxylic acid] | < 0.001 µM | > 4 µM
5 | COCCCOc1cc2c(nc1Cl)-c1cc(=O)c(C(=O)O)cn1[C@H](C(C)(C)C)C2 [Example 11, (S)-6-(tert-Butyl)-2-chloro-3-(3-methoxypropoxy)-10-oxo-6,10-dihydro-5H-pyrido[1,2-h][1,7]naphthyridine-9-carboxylic acid] | < 0.001 µM | > 4 µM
6 | Cc1cc2c(nc1C)CC(C(C)C)n1cc(C(=O)O)c(=O)cc1-2 (stereo not shown) [Example 33, 6-Isopropyl-2,3-dimethyl-10-oxo-5,10-dihydro-6H-pyrido[2,1-f][1,6]naphthyridine-9-carboxylic acid] | > 0.1 µM | > 4 µM
7 | COCCCOc1cc2c(nc1Cl)-c1cc(=O)c(C(=O)O)cn1C(C(C)(C)CO)C2 (stereo not shown) [Example 10, 2-Chloro-6-(1-hydroxy-2-methylpropan-2-yl)-3-(3-methoxypropoxy)-10-oxo-6,10-dihydro-5H-pyrido[1,2-h][1,7]naphthyridine-9-carboxylic acid] | 0.001 to 0.01 µM | > 4 µM
8 | CC(C)(C)[C@@H]1Cc2cc(OCC3CC3)c(O)nc2-c2cc(=O)c(C(=O)O)cn21 [Example 18, (S)-6-(tert-Butyl)-3-(cyclopropylmethoxy)-2-hydroxy-10-oxo-6,10-dihydro-5H-pyrido[1,2-h][1,7]naphthyridine-9-carboxylic acid] | > 0.1 µM | > 4 µM
9 | COCCCOc1cc2c(nc1C1CC1)-c1cc(=O)c(C(=O)O)cn1[C@H](C(C)(C)C)C2 [Example 15, (S)-6-(tert-Butyl)-2-cyclopropyl-3-(3-methoxypropoxy)-10-oxo-6,10-dihydro-5H-pyrido[1,2-h][1,7]naphthyridine-9-carboxylic acid] | < 0.001 µM | > 4 µM
10 | Cc1nc2c(cc1OCC1CC1)C[C@@H](C(C)(C)C)n1cc(C(=O)O)c(=O)cc1-2 [Example 12, (S)-6-(tert-Butyl)-3-(cyclopropylmethoxy)-2-methyl-10-oxo-6,10-dihydro-5H-pyrido[1,2-h][1,7]naphthyridine-9-carboxylic acid] | < 0.001 µM | > 4 µM
11 | COCCCOc1cc2c(nc1C1CC1)-c1c(O)c(=O)c(C(=O)O)cn1[C@H](C(C)(C)C)C2 [Example 25, (S)-6-(tert-Butyl)-2-cyclopropyl-11-hydroxy-3-(3-methoxypropoxy)-10-oxo-5,10-dihydro-6H-pyrido[1,2-h][1,7]naphthyridine-9-carboxylic acid] | < 0.001 µM | > 4 µM
